From patent US6914045B2, “Glycopeptide antibiotics” (Wyeth Holdings Corporation, priority 2001, dated 2005)

Legend:
Assay in all cases: in vitro antibacterial evaluation, MIC by broth dilution
Assay type in all cases: cell-based
Staphylococcus sp. = test system: Staphylococcus sp.
How it was run: (§1)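 Broth dilution per NCCLS M7-A2 in Mueller-Hinton II medium, inoculum 5×10^5 CFU/mL, antibiotic range 64-0.06 μg/mL. MIC taken as lowest concentration inhibiting growth; Gram-positive panel includes recent clinical isolates resistant to methicillin, penicillin and/or vancomycin.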

Enterococcus sp. = conditions: broth dilution, 18 hours at 35° C.
How it was run: as §1

Streptococcus sp. = conditions: broth dilution, 18 hours at 35° C.
How it was run: as §1

Escherichia coli = conditions: 18 hours at 35° C.
[1] = strain ATCC 29213; broth dilution, 18 hours at 35° C.
[2] = strain GC 1131; broth dilution, 18 hours at 35° C.
[3] = strain GC 3051; broth dilution, 18 hours at 35° C.
[4] = strain GC 3053; broth dilution, 18 hours at 35° C.
[5] = strain GC 4541; broth dilution, 18 hours at 35° C.
[6] = strain GC 4542; broth dilution, 18 hours at 35° C.
[7] = strain GC 4544; broth dilution, 18 hours at 35° C.
[8] = strain GC 4545; broth dilution, 18 hours at 35° C.
[9] = inoculum 5×10^5 CFU/mL, strain ATCC 29212
[10] = inoculum 5×10^5 CFU/mL, strain GC 2242
[11] = inoculum 5×10^5 CFU/mL, strain GC 2243
[12] = inoculum 5×10^5 CFU/mL, strain GC 2691
[13] = inoculum 5×10^5 CFU/mL, strain GC 3059
[14] = inoculum 5×10^5 CFU/mL, strain GC 4552
[15] = inoculum 5×10^5 CFU/mL, strain GC 4553
[16] = inoculum 5×10^5 CFU/mL, strain GC 4554
[17] = inoculum 5×10^5 CFU/mL, strain GC 4556
[18] = inoculum 5×10^5 CFU/mL, strain GC 4557
[19] = inoculum 5×10^5 CFU/mL, strain GC 4558
[20] = inoculum 5×10^5 CFU/mL, strain GC 6189
[21] = inoculum 5×10^5 CFU/mL, strain ATCC 6301
[22] = inoculum 5×10^5 CFU/mL, strain GC 1894
[23] = inoculum 5×10^5 CFU/mL, strain GC 4563
[24] = inoculum 5×10^5 CFU/mL, strain GC 4564
[25] = inoculum 5×10^5 CFU/mL, strain GC 4565
[26] = broth dilution, 18 hours at 35° C.

CC(C)=CCN1CC(C(O)C2NC(=O)C(C(O)C3CNC(=N)N3)NC(=O)C(Cc3ccc(OC4OC(CO)C(OC5OC6COC7(OC6C(O)C5O)C5CC6CC(C5)CC7C6)C(O)C4O)cc3)NC(=O)C(C(C)c3ccccc3)NC(=O)CNC(=O)C(CO)NC2=O)N(C2OC(CO)C(O)C(O)C2O)C1=N (centres unmarked) [Example 225]
1 µg/mL: MIC Enterococcus faecium (GC 4557) (Enterococcus sp.) | MIC Enterococcus faecium (GC 4557) (Enterococcus sp.; [18]) | MIC Streptococcus pneumoniae (GC 4565) (Streptococcus sp.) | MIC Streptococcus pneumoniae (GC 4565) (Streptococcus sp.; [25])
4 µg/mL: MIC Staphylococcus aureus (ATCC 29213) (Staphylococcus sp.; [1]) | MIC Staphylococcus aureus (GC 3051) (Staphylococcus sp.; [3]) | MIC Staphylococcus aureus (GC 4541) (Staphylococcus sp.; [5]) | MIC Staphylococcus aureus-SMITH (GC 4543) (Staphylococcus sp.; strain GC 4543; broth dilution, 18 hours at 35° C.) | MIC Staphylococcus aureus (GC 4545) (Staphylococcus sp.; [8]) | MIC Staphylococcus haemolyticus (GC 4546) (Staphylococcus sp.; strain GC 4546; broth dilution, 18 hours at 35° C.) | MIC Coagulase Negative Staphylococcus (GC 4547) (Staphylococcus sp.; strain GC 4547; broth dilution, 18 hours at 35° C.) | MIC Coagulase Negative Staphylococcus (GC 4551) (Staphylococcus sp.; strain GC 4551; broth dilution, 18 hours at 35° C.) | MIC Enterococcus avium (GC 4558) (Enterococcus sp.) | MIC Enterococcus faecalis (GC 4553) (Enterococcus sp.) | MIC Enterococcus faecium (GC 2243) (Enterococcus sp.) | MIC Enterococcus faecium (GC 2243) (Enterococcus sp.; [11]) | MIC Enterococcus faecalis (GC 4553) (Enterococcus sp.; [15]) | MIC Enterococcus avium (GC 4558) (Enterococcus sp.; [19]) | MIC Escherichia coli (GC 4560) (Escherichia coli)
2 µg/mL: MIC Coagulase Negative Staphylococcus (GC 4548) (Staphylococcus sp.; strain GC 4548; broth dilution, 18 hours at 35° C.) | MIC Coagulase Negative Staphylococcus (GC 4549) (Staphylococcus sp.; strain GC 4549; broth dilution, 18 hours at 35° C.)
<0.12 µg/mL: MIC Streptococcus pneumoniae (GC 1894) (Streptococcus sp.) | MIC Streptococcus pneumoniae (GC 1894) (Streptococcus sp.; [22])
0.5 µg/mL: MIC Streptococcus agalactiae (GC 4564) (Streptococcus sp.) | MIC Streptococcus pneumoniae (ATCC 6301) (Streptococcus sp.) | MIC Streptococcus pyogenes (GC 4563) (Streptococcus sp.) | MIC Streptococcus pneumoniae (ATCC 6301) (Streptococcus sp.; [21]) | MIC Streptococcus pyogenes (GC 4563) (Streptococcus sp.; [23]) | MIC Streptococcus agalactiae (GC 4564) (Streptococcus sp.; [24])
16 µg/mL: MIC Enterococcus faecalis (GC 2691) (Enterococcus sp.) | MIC Enterococcus faecalis (GC 3059) (Enterococcus sp.) | MIC Enterococcus faecalis (GC 4554) (Enterococcus sp.) | MIC Enterococcus faecalis (GC 6189) (Enterococcus sp.) | MIC Enterococcus faecalis (GC 2691) (Enterococcus sp.; [12]) | MIC Enterococcus faecalis (GC 3059) (Enterococcus sp.; [13]) | MIC Enterococcus faecalis (GC 4554) (Enterococcus sp.; [16]) | MIC Enterococcus faecalis (GC 6189) (Enterococcus sp.; [20])
128 µg/mL: MIC Escherichia coli (ATCC 25922) (Escherichia coli) | MIC Escherichia coli (GC 4559) (Escherichia coli)
8 µg/mL: MIC Staphylococcus aureus (GC 1131) (Staphylococcus sp.; [2]) | MIC Staphylococcus aureus (GC 3053) (Staphylococcus sp.; [4]) | MIC Staphylococcus aureus (GC 4542) (Staphylococcus sp.; [6]) | MIC Staphylococcus aureus (GC 4544) (Staphylococcus sp.; [7]) | MIC Enterococcus faecalis (ATCC 29212) (Enterococcus sp.) | MIC Enterococcus faecalis (GC 2242) (Enterococcus sp.) | MIC Enterococcus faecalis (GC 4552) (Enterococcus sp.) | MIC Enterococcus faecium (GC 4556) (Enterococcus sp.) | MIC Enterococcus faecalis (ATCC 29212) (Enterococcus sp.; [9]) | MIC Enterococcus faecalis (GC 2242) (Enterococcus sp.; [10]) | MIC Enterococcus faecalis (GC 4552) (Enterococcus sp.; [14]) | MIC Enterococcus faecium (GC 4556) (Enterococcus sp.; [17])

CC(c1ccccc1)C1NC(=O)CNC(=O)C(CO)NC(=O)C(C(O)C2CN(Cc3ccc(C(F)(F)F)cc3)C(=N)N2C2OC(CO)C(O)C(O)C2O)NC(=O)C(C(O)C2CNC(=N)N2)NC(=O)C(Cc2ccc(OC3OC(CO)C(OC4OC5COC6(OC5C(O)C4O)C4CC5CC(C4)CC6C5)C(O)C3O)cc2)NC1=O (centres unmarked) [Example 226]
16 µg/mL: MIC Coagulase Negative Staphylococcus (GC 4549) (Staphylococcus sp.; [26]) | MIC Coagulase Negative Staphylococcus (GC 4549) (Staphylococcus sp.; broth dilution, 18 hours at 35° C.; strain GC 4549) | MIC Staphylococcus aureus (ATCC 29213) (Staphylococcus sp.; [1]) | MIC Staphylococcus aureus (GC 1131) (Staphylococcus sp.; [2]) | MIC Staphylococcus aureus (GC 3051) (Staphylococcus sp.; [3]) | MIC Staphylococcus aureus (GC 3053) (Staphylococcus sp.; [4]) | MIC Staphylococcus aureus (GC 4542) (Staphylococcus sp.; [6]) | MIC Staphylococcus aureus (GC 4544) (Staphylococcus sp.; [7]) | MIC Staphylococcus aureus (GC 4545) (Staphylococcus sp.; [8]) | MIC Enterococcus faecalis (GC 2242) (Enterococcus sp.) | MIC Enterococcus faecalis (GC 4553) (Enterococcus sp.) | MIC Enterococcus faecium (GC 2243) (Enterococcus sp.) | MIC Enterococcus faecalis (GC 2242) (Enterococcus sp.; [10]) | MIC Enterococcus faecium (GC 2243) (Enterococcus sp.; [11]) | MIC Enterococcus faecalis (GC 4553) (Enterococcus sp.; [15])
128 µg/mL: MIC Escherichia coli (GC 4559) (Escherichia coli)
>128 µg/mL: MIC Escherichia coli (ATCC 25922) (Escherichia coli)
2 µg/mL: MIC Coagulase Negative Staphylococcus (GC 6257) (Staphylococcus sp.; [26]) | MIC Coagulase Negative Staphylococcus (GC 6257) (Staphylococcus sp.; broth dilution, 18 hours at 35° C.; strain GC 6257) | MIC Enterococcus faecium (GC 4557) (Enterococcus sp.) | MIC Enterococcus faecium (GC 4557) (Enterococcus sp.; [18]) | MIC Streptococcus pyogenes (GC 4563) (Streptococcus sp.) | MIC Streptococcus pyogenes (GC 4563) (Streptococcus sp.; [23])
4 µg/mL: MIC Streptococcus agalactiae (GC 4564) (Streptococcus sp.) | MIC Streptococcus pneumoniae (ATCC 6301) (Streptococcus sp.) | MIC Streptococcus pneumoniae (GC 4565) (Streptococcus sp.) | MIC Streptococcus pneumoniae (ATCC 6301) (Streptococcus sp.; [21]) | MIC Streptococcus agalactiae (GC 4564) (Streptococcus sp.; [24]) | MIC Streptococcus pneumoniae (GC 4565) (Streptococcus sp.; [25]) | MIC Escherichia coli (GC 4560) (Escherichia coli)
0.5 µg/mL: MIC Streptococcus pneumoniae (GC 1894) (Streptococcus sp.) | MIC Streptococcus pneumoniae (GC 1894) (Streptococcus sp.; [22])
8 µg/mL: MIC Coagulase Negative Staphylococcus (GC 4547) (Staphylococcus sp.; [26]) | MIC Coagulase Negative Staphylococcus (GC 4548) (Staphylococcus sp.; [26]) | MIC Coagulase Negative Staphylococcus (GC 4551) (Staphylococcus sp.; [26]) | MIC Staphylococcus aureus-SMITH (GC 4543) (Staphylococcus sp.; [26]) | MIC Staphylococcus haemolyticus (GC 4546) (Staphylococcus sp.; [26]) | MIC Staphylococcus aureus-SMITH (GC 4543) (Staphylococcus sp.; broth dilution, 18 hours at 35° C.; strain GC 4543) | MIC Staphylococcus haemolyticus (GC 4546) (Staphylococcus sp.; broth dilution, 18 hours at 35° C.; strain GC 4546) | MIC Coagulase Negative Staphylococcus (GC 4547) (Staphylococcus sp.; broth dilution, 18 hours at 35° C.; strain GC 4547) | MIC Coagulase Negative Staphylococcus (GC 4548) (Staphylococcus sp.; broth dilution, 18 hours at 35° C.; strain GC 4548) | MIC Coagulase Negative Staphylococcus (GC 4551) (Staphylococcus sp.; broth dilution, 18 hours at 35° C.; strain GC 4551) | MIC Staphylococcus aureus (GC 4541) (Staphylococcus sp.; [5]) | MIC Enterococcus avium (GC 4558) (Enterococcus sp.) | MIC Enterococcus avium (GC 4558) (Enterococcus sp.; [19])
32 µg/mL: MIC Enterococcus faecalis (ATCC 29212) (Enterococcus sp.) | MIC Enterococcus faecalis (GC 2691) (Enterococcus sp.) | MIC Enterococcus faecalis (GC 3059) (Enterococcus sp.) | MIC Enterococcus faecalis (GC 4552) (Enterococcus sp.) | MIC Enterococcus faecalis (GC 4554) (Enterococcus sp.) | MIC Enterococcus faecalis (GC 6189) (Enterococcus sp.) | MIC Enterococcus faecium (GC 4556) (Enterococcus sp.) | MIC Enterococcus faecalis (ATCC 29212) (Enterococcus sp.; [9]) | MIC Enterococcus faecalis (GC 2691) (Enterococcus sp.; [12]) | MIC Enterococcus faecalis (GC 3059) (Enterococcus sp.; [13]) | MIC Enterococcus faecalis (GC 4552) (Enterococcus sp.; [14]) | MIC Enterococcus faecalis (GC 4554) (Enterococcus sp.; [16]) | MIC Enterococcus faecium (GC 4556) (Enterococcus sp.; [17]) | MIC Enterococcus faecalis (GC 6189) (Enterococcus sp.; [20])
